Data taken from patent US20200239530A1, “COMPOUNDS AND METHODS OF MODULATING PROTEIN DEGRADATION” (Vividion Therapeutics, Inc., priority 2017, published 2020).

Assays:
Assay in all cases: Cysteine liganding, probe competition
Assay type in all cases: binding
PML Protein PML = target: T1, PML Protein PML (Homo sapiens, UniProt P29590)
T1 construct: Cells were resuspended in cold PBS on ice and sonicated with a probe sonicator to achieve lysis; endogenous in cells
T1 sequence (P29590 1-882): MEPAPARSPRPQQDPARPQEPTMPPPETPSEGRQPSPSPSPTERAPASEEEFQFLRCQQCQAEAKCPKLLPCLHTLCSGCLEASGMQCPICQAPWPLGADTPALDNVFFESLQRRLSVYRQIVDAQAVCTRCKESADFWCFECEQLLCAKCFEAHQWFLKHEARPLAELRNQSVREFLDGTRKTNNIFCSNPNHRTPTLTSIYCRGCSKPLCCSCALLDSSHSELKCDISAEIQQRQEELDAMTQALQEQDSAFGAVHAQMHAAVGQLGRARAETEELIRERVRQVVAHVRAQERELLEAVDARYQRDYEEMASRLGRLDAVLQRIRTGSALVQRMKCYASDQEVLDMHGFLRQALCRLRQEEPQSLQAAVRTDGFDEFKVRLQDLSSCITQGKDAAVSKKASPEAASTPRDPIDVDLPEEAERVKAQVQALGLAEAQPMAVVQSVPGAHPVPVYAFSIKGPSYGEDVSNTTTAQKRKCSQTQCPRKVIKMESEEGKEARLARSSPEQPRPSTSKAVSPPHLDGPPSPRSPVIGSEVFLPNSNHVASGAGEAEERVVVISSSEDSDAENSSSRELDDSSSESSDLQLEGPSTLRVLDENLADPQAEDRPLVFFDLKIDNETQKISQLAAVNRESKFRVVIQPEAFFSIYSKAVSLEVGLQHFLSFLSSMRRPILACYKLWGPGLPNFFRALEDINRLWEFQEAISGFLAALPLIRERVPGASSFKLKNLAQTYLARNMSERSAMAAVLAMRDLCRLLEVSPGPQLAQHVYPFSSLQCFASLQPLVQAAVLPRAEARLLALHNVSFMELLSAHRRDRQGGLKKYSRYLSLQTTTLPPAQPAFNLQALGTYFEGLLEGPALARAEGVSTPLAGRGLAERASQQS
Summary of the method: (§1)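 Read-out is loss of desthiobiotin iodoacetamide labelling at cysteines, measured on streptavidin-enriched tryptic peptides. Compound preincubation ran 1 hr at 25° C in PBS lysate holding 5 mg/ml proteome before the probe was added.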

LGMN Legumain = target: T2, LGMN Legumain (Homo sapiens, UniProt Q99538); settings: for 100 Max / 100 ave / 500 Max / 500 ave: uniprot Q99538
T2 construct: Cells were resuspended in cold PBS on ice and sonicated with a probe sonicator to achieve lysis; endogenous in cells
T2 sequence (Q99538 18-323): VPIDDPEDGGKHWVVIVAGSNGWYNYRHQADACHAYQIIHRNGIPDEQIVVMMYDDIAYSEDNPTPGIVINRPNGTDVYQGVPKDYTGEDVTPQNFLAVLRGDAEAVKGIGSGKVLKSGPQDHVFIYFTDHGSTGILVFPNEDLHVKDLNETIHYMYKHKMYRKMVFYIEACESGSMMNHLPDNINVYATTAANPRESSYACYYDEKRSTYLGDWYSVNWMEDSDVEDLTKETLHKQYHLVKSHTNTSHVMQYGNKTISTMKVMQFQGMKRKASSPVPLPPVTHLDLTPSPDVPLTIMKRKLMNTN
Summary of the method: as §1

[1] = target: T3, RPS6KA1 Ribosomal protein S6 kinase alpha-1 (Homo sapiens, UniProt Q15418)
T3 construct: Cells were resuspended in cold PBS on ice and sonicated with a probe sonicator to achieve lysis; endogenous in cells
Summary of the method: as §1

[2] = target: T4, MT-ND5 NADH-ubiquinone oxidoreductase chain 5 (Homo sapiens, UniProt P03915); settings: for Liganded: MT-ND5 Res# 518, uniprot P03915
T4 construct: Cells were resuspended in cold PBS on ice and sonicated with a probe sonicator to achieve lysis; endogenous in cells
Summary of the method: as §1

T4 sequence (P03915 whole entry): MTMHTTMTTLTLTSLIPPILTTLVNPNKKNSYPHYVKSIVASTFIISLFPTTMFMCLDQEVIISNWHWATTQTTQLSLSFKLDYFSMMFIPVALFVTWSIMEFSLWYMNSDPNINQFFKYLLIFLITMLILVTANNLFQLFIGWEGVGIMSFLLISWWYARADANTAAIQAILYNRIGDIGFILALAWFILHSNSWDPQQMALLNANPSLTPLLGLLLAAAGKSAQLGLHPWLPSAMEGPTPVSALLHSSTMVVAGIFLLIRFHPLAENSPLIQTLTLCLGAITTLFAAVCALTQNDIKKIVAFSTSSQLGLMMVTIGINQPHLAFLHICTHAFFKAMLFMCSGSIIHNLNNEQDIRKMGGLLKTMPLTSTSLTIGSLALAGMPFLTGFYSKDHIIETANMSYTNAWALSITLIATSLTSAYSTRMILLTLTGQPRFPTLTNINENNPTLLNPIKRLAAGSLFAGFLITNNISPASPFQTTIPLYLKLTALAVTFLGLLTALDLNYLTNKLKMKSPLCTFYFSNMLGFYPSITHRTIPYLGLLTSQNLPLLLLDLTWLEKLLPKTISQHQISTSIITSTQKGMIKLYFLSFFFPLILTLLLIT
T3 sequence (Q15418 whole entry): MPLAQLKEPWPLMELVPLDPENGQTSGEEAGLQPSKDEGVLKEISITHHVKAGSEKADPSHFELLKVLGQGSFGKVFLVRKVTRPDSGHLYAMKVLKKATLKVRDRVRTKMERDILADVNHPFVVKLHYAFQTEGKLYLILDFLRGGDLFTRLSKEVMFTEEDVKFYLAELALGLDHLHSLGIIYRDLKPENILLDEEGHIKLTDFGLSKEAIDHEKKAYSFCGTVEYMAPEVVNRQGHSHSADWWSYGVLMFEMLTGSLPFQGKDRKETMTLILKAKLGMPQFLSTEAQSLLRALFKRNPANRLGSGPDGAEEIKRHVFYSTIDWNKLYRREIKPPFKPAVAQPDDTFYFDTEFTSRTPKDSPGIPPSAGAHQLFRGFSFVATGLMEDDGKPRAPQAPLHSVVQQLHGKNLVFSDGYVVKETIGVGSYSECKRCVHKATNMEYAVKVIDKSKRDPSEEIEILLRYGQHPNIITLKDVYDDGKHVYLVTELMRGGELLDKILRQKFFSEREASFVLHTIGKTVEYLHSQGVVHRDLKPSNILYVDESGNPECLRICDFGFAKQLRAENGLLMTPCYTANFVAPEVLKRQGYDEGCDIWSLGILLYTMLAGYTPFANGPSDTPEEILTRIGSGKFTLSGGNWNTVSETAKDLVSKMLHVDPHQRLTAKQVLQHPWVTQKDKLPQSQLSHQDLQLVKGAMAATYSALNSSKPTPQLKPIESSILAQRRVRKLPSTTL

Row | Structure (SMILES) | Liganded (PML Protein PML; PML Res# 479, uniprot P29590) | Liganded (PML Protein PML; PML Res# 484, uniprot P29590) | Liganded (LGMN Legumain; LGMN Res# 50, uniprot Q99538) | 100 Max (LGMN Legumain) | 100 ave (LGMN Legumain) | 500 Max (LGMN Legumain) | 500 ave (LGMN Legumain) | Liganded ([1]; RPS6KA1 Res# 223, uniprot Q15418) | Liganded [2] | KB03_500 uM_percent_inhibition (PML Protein PML; UniProt P29590, 500 uM) | 100 Max ([1]; uniprot Q15418) | 100 ave ([1]; uniprot Q15418) | 500 ave ([1]; uniprot Q15418) | 500 Max ([1]; uniprot Q15418, in % (unit assumed)) | 100 ave ([2]; uniprot P03915) | 100 Max ([2]; uniprot P03915, in % (unit assumed))
1 | COc1ccc2c(c1)CCCN2C(=O)CCl [KB02] | YES | YES | YES | 33.6 | 20.31 | 78.38 | 78.38 | YES | YES | – | – | – | – | – | – | –
2 | O=C(CCl)Nc1cc(C(F)(F)F)cc(C(F)(F)F)c1 [KBO3] | – | – | – | 12.45 | 0.755 | 60.93 | 60.93 | – | YES | 69% | 1.03 | 1.03 | 30.61 | 30.61 | 83.61 | 83.61
